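A five-concentration, 48-hour dose response in 96-well plates underlies each endpoint, interpolated linearly between surrounding concentrations. At the GI50, growth is halved. TGI is the concentration that stops growth completely.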
What was measured:
Assay in all cases: NCI-60 cell line screen, 48 h
OVCAR-8 ovarian = test system: OVCAR-8 ovarian
UACC-62 melanoma = test system: UACC-62 melanoma
786-0 renal = test system: 786-0 renal
RPMI-8226 leukemia = test system: RPMI-8226 leukemia
NCI-H226 lung = test system: NCI-H226 lung
OVCAR-5 ovarian = test system: OVCAR-5 ovarian
K-562 leukemia = test system: K-562 leukemia
HS 578T breast = test system: HS 578T breast
SF-295 CNS = test system: SF-295 CNS
SF-268 CNS = test system: SF-268 CNS
SF-539 CNS = test system: SF-539 CNS
UACC-257 melanoma = test system: UACC-257 melanoma
LOX IMVI melanoma = test system: LOX IMVI melanoma
SK-MEL-2 melanoma = test system: SK-MEL-2 melanoma
SNB-19 CNS = test system: SNB-19 CNS
PC-3 prostate = test system: PC-3 prostate
SN12C renal = test system: SN12C renal
MDA-MB-231 breast = test system: MDA-MB-231 breast
HOP-92 NSCLC = test system: HOP-92 NSCLC
A498 renal = test system: A498 renal
SR leukemia = test system: SR leukemia
U251 CNS = test system: U251 CNS
MOLT-4 leukemia = test system: MOLT-4 leukemia
HOP-62 NSCLC = test system: HOP-62 NSCLC
KM12 colon = test system: KM12 colon
BT-549 breast = test system: BT-549 breast
COLO 205 colon = test system: COLO 205 colon
M14 melanoma = test system: M14 melanoma
SK-OV-3 ovarian = test system: SK-OV-3 ovarian
EKVX NSCLC = test system: EKVX NSCLC
OVCAR-3 ovarian = test system: OVCAR-3 ovarian
ACHN renal = test system: ACHN renal
SK-MEL-5 melanoma = test system: SK-MEL-5 melanoma
MCF7 breast = test system: MCF7 breast
HCT-116 colon = test system: HCT-116 colon
SK-MEL-28 melanoma = test system: SK-MEL-28 melanoma
SW-620 colon = test system: SW-620 colon
NCI/ADR-RES ovarian = test system: NCI/ADR-RES ovarian
IGROV1 ovarian = test system: IGROV1 ovarian
HT29 colon = test system: HT29 colon
T-47D breast = test system: T-47D breast
A549 NSCLC = test system: A549 NSCLC
HCT-15 colon = test system: HCT-15 colon
MDA-MB-435 = test system: MDA-MB-435
HCC-2998 colon = test system: HCC-2998 colon
CAKI-1 renal = test system: CAKI-1 renal
SNB-75 CNS = test system: SNB-75 CNS
RXF 393 renal = test system: RXF 393 renal
UO-31 renal = test system: UO-31 renal
HL-60(TB) leukemia = test system: HL-60(TB) leukemia
DU-145 prostate = test system: DU-145 prostate
NCI-H522 lung = test system: NCI-H522 lung
NCI-H460 lung = test system: NCI-H460 lung
OVCAR-4 ovarian = test system: OVCAR-4 ovarian
TK-10 renal = test system: TK-10 renal
CCRF-CEM leukemia = test system: CCRF-CEM leukemia
MALME-3M melanoma = test system: MALME-3M melanoma

Which results are given for `Cc1cc2c(-c3ccc(NC(=O)[C@H](N)CC(C)(C)C)cc3C)ccnc2[nH]1`?
GI50 (OVCAR-8 ovarian): 13.6 µM; TGI (OVCAR-8 ovarian): 28 µM; GI50 (UACC-62 melanoma): 8.6 µM; TGI (UACC-62 melanoma): 21 µM; GI50 (786-0 renal): 1.81 µM; TGI (786-0 renal): 3.4 µM; GI50 (RPMI-8226 leukemia): 2.77 µM; TGI (RPMI-8226 leukemia): 7.82 µM; GI50 (NCI-H226 lung): 10.7 µM; TGI (NCI-H226 lung): 27.2 µM; GI50 (OVCAR-5 ovarian): 10.4 µM; TGI (OVCAR-5 ovarian): 22.3 µM; GI50 (K-562 leukemia): 2.82 µM; TGI (K-562 leukemia): 41.2 µM; GI50 (HS 578T breast): 1.42 µM; TGI (HS 578T breast): 12.3 µM; GI50 (SF-295 CNS): 8.33 µM; TGI (SF-295 CNS): 25.7 µM; GI50 (SF-268 CNS): 11.1 µM; TGI (SF-268 CNS): 26.6 µM; GI50 (SF-539 CNS): 7.97 µM; TGI (SF-539 CNS): 21 µM; GI50 (UACC-257 melanoma): 10.5 µM; TGI (UACC-257 melanoma): 23 µM; GI50 (LOX IMVI melanoma): 5.9 µM; TGI (LOX IMVI melanoma): 25.9 µM; GI50 (SK-MEL-2 melanoma): 14 µM; TGI (SK-MEL-2 melanoma): 27.2 µM; GI50 (SNB-19 CNS): 11.3 µM; TGI (SNB-19 CNS): 23.5 µM; GI50 (PC-3 prostate): 7.91 µM; TGI (PC-3 prostate): 22.1 µM; GI50 (SN12C renal): 11.1 µM; TGI (SN12C renal): 23.6 µM; GI50 (MDA-MB-231 breast): 7.43 µM; TGI (MDA-MB-231 breast): 20.7 µM; GI50 (HOP-92 NSCLC): 2.67 µM; TGI (HOP-92 NSCLC): 10.3 µM; GI50 (A498 renal): 2.2 µM; TGI (A498 renal): 12.8 µM; GI50 (SR leukemia): 2.08 µM; TGI (SR leukemia): 6.37 µM; GI50 (U251 CNS): 5.99 µM; TGI (U251 CNS): 19.5 µM; GI50 (MOLT-4 leukemia): 4.69 µM; TGI (MOLT-4 leukemia): 24 µM; GI50 (HOP-62 NSCLC): 11.4 µM; TGI (HOP-62 NSCLC): 24.6 µM; GI50 (KM12 colon): 6.1 µM; TGI (KM12 colon): 21.2 µM; GI50 (BT-549 breast): 6.31 µM; TGI (BT-549 breast): 19.5 µM; GI50 (COLO 205 colon): 1.82 µM; TGI (COLO 205 colon): 3.54 µM; GI50 (M14 melanoma): 11 µM; TGI (M14 melanoma): 23.5 µM; GI50 (SK-OV-3 ovarian): 12.4 µM; TGI (SK-OV-3 ovarian): 25.2 µM; GI50 (EKVX NSCLC): 11.2 µM; TGI (EKVX NSCLC): 28.3 µM; GI50 (OVCAR-3 ovarian): 11.6 µM; TGI (OVCAR-3 ovarian): 24.8 µM; GI50 (ACHN renal): 10.5 µM; TGI (ACHN renal): 22.3 µM; GI50 (SK-MEL-5 melanoma): 2.46 µM; TGI (SK-MEL-5 melanoma): 6.53 µM; GI50 (MCF7 breast): 5.54 µM; TGI (MCF7 breast): 30.5 µM; GI50 (HCT-116 colon): 4.85 µM; TGI (HCT-116 colon): 16.5 µM; GI50 (SK-MEL-28 melanoma): 8.48 µM; TGI (SK-MEL-28 melanoma): 20.8 µM; GI50 (SW-620 colon): 5.63 µM; TGI (SW-620 colon): 19.7 µM; GI50 (NCI/ADR-RES ovarian): 13.4 µM; TGI (NCI/ADR-RES ovarian): 35.8 µM; GI50 (IGROV1 ovarian): 12.2 µM; TGI (IGROV1 ovarian): 26.1 µM; GI50 (HT29 colon): 2.72 µM; TGI (HT29 colon): 8.84 µM; GI50 (T-47D breast): 6.71 µM; TGI (T-47D breast): 24.8 µM; GI50 (A549 NSCLC): 10.3 µM; TGI (A549 NSCLC): 26 µM; GI50 (HCT-15 colon): 4.52 µM; TGI (HCT-15 colon): 21.8 µM; GI50 (MDA-MB-435): 7 µM; TGI (MDA-MB-435): 19.9 µM; GI50 (HCC-2998 colon): 5.81 µM; TGI (HCC-2998 colon): 20.9 µM; GI50 (CAKI-1 renal): 4.5 µM; TGI (CAKI-1 renal): 16.3 µM; GI50 (SNB-75 CNS): 4.72 µM; TGI (SNB-75 CNS): 18.1 µM; GI50 (RXF 393 renal): 3.68 µM; TGI (RXF 393 renal): 16 µM; GI50 (UO-31 renal): 4.62 µM; TGI (UO-31 renal): 18.1 µM; GI50 (HL-60(TB) leukemia): 2.89 µM; TGI (HL-60(TB) leukemia): 14 µM; GI50 (DU-145 prostate): 12.4 µM; TGI (DU-145 prostate): 25.5 µM; GI50 (NCI-H522 lung): 13 µM; TGI (NCI-H522 lung): 26.3 µM; GI50 (NCI-H460 lung): 5.7 µM; TGI (NCI-H460 lung): 19 µM; GI50 (OVCAR-4 ovarian): 6.95 µM; TGI (OVCAR-4 ovarian): 20.8 µM; GI50 (TK-10 renal): 12.6 µM; TGI (TK-10 renal): 25.3 µM; GI50 (CCRF-CEM leukemia): 5.41 µM; TGI (CCRF-CEM leukemia): 28.2 µM; GI50 (MALME-3M melanoma): 10.2 µM; TGI (MALME-3M melanoma): 22.8 µM
